Measured values taken from patent publication US20210008229A1, “TARGETED PHOTOACOUSTIC AGENTS AND USES THEREOF” (McMaster University, priority 2019, published 2021).
In brackets after ≈: the same amount, converted by molar mass.

Experiments:
[1] = molecular target: T1, bovine serum albumin (BSA) (Bos taurus, UniProt P02769); experiment: preliminary albumin binding study (absorbance and emission with BSA); settings: absorbance and emission of 5 with varying concentrations of BSA
T1 construct: purchased Sigma-Aldrich
Protocol: When experiments were performed at high dye concentrations, aggregation completely quenches the fluorescence signal, which can be restored through the addition of albumin.

[2] = test system: 143B human osteosarcoma xenografts; experiment: in vivo photoacoustic imaging of tumor xenografts; set-up: species or system BALB/c nu/nu mice; settings: 1 hour post injection versus background before injection; 200 μL of 5 (1 mg)
Protocol: Red in color images=oxyhemoglobin, Blue in color images=deoxyhemoglobin and Green in color images=the dye-tetrazine conjugate according to an embodiment of the present application. The dashed white lines outline the tumor.
Female BALB/c […] mice (Charles River Laboratories, Kingston, N.Y.) at 4-6 weeks of age were sterile housed and maintained at 24° C. with a 12 h light/dark cycle and were provided autoclaved food and water ad libitum. All procedures were conducted according to the guidelines of the Committee for Research and Ethical Issues of the International Association for the Study of Pain, and guidelines established by the Canadian Council on Animal Care and the McMaster University Animal Research Ethics Board. Female 10-11 week old BALB/c nu/nu mice (Charles River Laboratories, Kingston, N.Y.) were injected with 2.0×10^6 143 B cells in Matrigel:Dulbecco's phosphate-buffered saline (DPBS) (1:1) subcutaneously into the right flank. Photoacoustic studies were performed 10 days following tumor inoculation.
Photoacoustic imaging was performed using Vevo LAZR-X (FUJIFILM VisualSonics Inc., Toronto, ON, Canada) Imaging system equipped with a 680-970 nm laser. Mice were anaesthetized with isofluorane and set up on a platform that monitored the respiration rate and the heart rate of the mouse. The hair on the hindlimb was removed while the mouse was anaesthetized. […]

[3] = stability of 5 in plasma (HPLC); type: in vitro ADME; settings: murine plasma at 37° C.
Protocol: Compound 5 was prepared from the commercially available dye IR-783, which is known to produce a strong photoacoustic signal, in only two steps. The first step involved the preparation of the IR-783-aldehyde 3 which was done successfully using a Suzuki-Miyaura coupling between 1 and 2 in the presence of Pd(PPh3)4 and Cs2CO3. A significant number of different catalysts, bases and reaction conditions were screened to maximize the yield of 3 (96%). The aldehyde was subsequently coupled to tetrazine 4, prepared using a literature procedure,^14 to form the hydrazone 5. Following characterization by nuclear magnetic resonance (NMR) spectroscopy, high resolution mass spectrometry (HRMS) and high performance liquid chromatography (HPLC), the stability of 5 in plasma was evaluated.

[4] = test system: sites of high calcium accretion; experiment: in vivo photoacoustic imaging of the knee joint (calcium accretion); set-up: species or system Balb/c mice; settings: for photoacoustic signal in the knee (or shoulder) joints: in vivo, 1 hour post-injection
Protocol: The white arrows indicate the knee joint and light grey arrows indicate blood vessels.
Photoacoustic imaging was performed using Vevo LAZR-X (FUJIFILM VisualSonics Inc., Toronto, ON, Canada) Imaging system equipped with a 680-970 nm laser. Mice were anaesthetized with isofluorane and set up on a platform that monitored the respiration rate and the heart rate of the mouse. The hair on the hindlimb was removed while the mouse was anaesthetized. A 30-MHz, linear array ultrasound transducer with integrated fiber optic light delivery (LZ-400 and MX-400, FUJIFILM VisualSonics, Inc.) was positioned laterally overtop the hindlimb knee joint. The integrated fiber bundle delivered 15 to 20 mJ/cm^2 of light to the hindlimb of the mouse.
There are a number of TCO-derived molecules, including antibodies and small molecules, that are available for use as targeting vectors.^16,17,18,19 For a proof of concept study, compound 5 was combined with a TCO-derived bisphosphonate (TCO-BP (6)). TCO-BP has been used to target radiolabeled tetrazines to sites of high calcium accretion. Conveniently, the compound allows testing to be performed in inexpensive healthy mouse models since tetrazine derivatives coupled to TCO-BP should localize to elbow and knee joints where there is elevated turnover of calcium.^16,20,21 Compound 7 was prepared by mixing compounds 5 and 6 at room temperature for 10 min in quantitative yield; highlighting the ease with which new photoacoustic imaging agents can be prepared using this approach.
For in vivo studies, a group of Balb/c mice were administered the parent tetrazine 5 and a second group received the bisphosphonate derivative 7.

[5] = solubility / formulation concentration in 10% ethanol in saline; type: physicochemical; settings: aqueous with cosolvent or surfactant or cyclodextrin, read-out: concentration formulated (soluble)
Protocol: Prior to developing and testing a targeted derivative, in vivo imaging studies were performed with 5 and 143B human osteosarcoma xenografts. Compound 5 was soluble in 10% ethanol in saline and formulated at a concentration of 5 mg mL^−1, which conveniently is higher than what can be achieved for ICG (1 mg mL^−1). Prior to injection, tumors were imaged in order to separate the signals arising from oxygenated and deoxygenated hemoglobin, and 5, which are shown in red, blue and green respectively in color images of FIG. 8. Following administration of 200 μL of 5 (1 mg), signal arising from 5 was clearly visible in the tumor as early as 1 hour post-injection (FIG. 8, upper right image). Mice were sacrificed and the tumors were imaged ex vivo (FIG. 8, lower left image) where uptake of the dye within the tumor was clearly evident.

[6] = biodistribution study (gamma counting of tissues and fluids); type: in vivo, BALB/c mice
Protocol: FIG. 11 is a plot showing biodistribution data for selected fluids and tissues for TCO-BP labeled with ^99mTc and coupled to a dye-tetrazine conjugate according to an embodiment of the present application. Experiments were performed using Balb/c mice (n=3 per time point) and tissues and fluids were collected at 1, 3, 6, and 24 h post administration. Data are expressed as the mean percent injected dose per gram (% ID g−1)±SEM.
(upper plot) and fluorescence spectra and intensity data for blood samples (n=3 for each time point) following the administration of TCO-BP labeled with ^99mTc and coupled to a dye-tetrazine conjugate according to an embodiment of the present application taken at 1, 3, 6, and 24 h p.i. (lower plot).
Biodistribution studies were performed using female BALB/c mice (Charles River, Kingston, N.Y.) at the indicated time points. The mice were administered the agents via tail vein injection with the final volume not exceeding 200 μL. A 5 mg/mL solution of compound 9 (see Scheme 2, below) in 10% ethanol in saline was administered at a dose of 20 mg/kg to all mice (approximately 518 kBq of 9). For all studies, at 1, 3, 6, or 24 h post-injection of the labeled compound, the animals were euthanized by cervical dislocation. Fluids, bone (knee and shoulder), and select tissues were collected, weighed, and counted in a PerkinElmer Wizard 1470 automatic gamma counter. Decay correction was used to normalize organ activity measurements to time of dose preparation for data calculations. Data is expressed as percent injected dose per gram tissue or fluid (% ID/g) or percent injected dose per organ (% ID/O).
Mice were administered 9 (518 kBq) and sacrificed at […] post injection where fluids, bone (knee, shoulder), and other key tissues were collected, weighed, and counted in a gamma counter. The resulting data is shown in FIG. 11 and expressed as percent injected dose per gram of tissue or fluid (% ID g^−1).

plasma proteins = experiment: plasma binding study; type: in vitro ADME; settings: for Pellet: activity in protein pellet; for Supernatant: activity in supernatant
From the text: FIG. 13 is a plot showing the results of a plasma binding study of TCO-BP labeled with ^99mTc and coupled to a dye-tetrazine conjugate according to an embodiment of the present application. […]

[7] = comparison value for ICG; cited from earlier work

T1 sequence (P02769 25-607): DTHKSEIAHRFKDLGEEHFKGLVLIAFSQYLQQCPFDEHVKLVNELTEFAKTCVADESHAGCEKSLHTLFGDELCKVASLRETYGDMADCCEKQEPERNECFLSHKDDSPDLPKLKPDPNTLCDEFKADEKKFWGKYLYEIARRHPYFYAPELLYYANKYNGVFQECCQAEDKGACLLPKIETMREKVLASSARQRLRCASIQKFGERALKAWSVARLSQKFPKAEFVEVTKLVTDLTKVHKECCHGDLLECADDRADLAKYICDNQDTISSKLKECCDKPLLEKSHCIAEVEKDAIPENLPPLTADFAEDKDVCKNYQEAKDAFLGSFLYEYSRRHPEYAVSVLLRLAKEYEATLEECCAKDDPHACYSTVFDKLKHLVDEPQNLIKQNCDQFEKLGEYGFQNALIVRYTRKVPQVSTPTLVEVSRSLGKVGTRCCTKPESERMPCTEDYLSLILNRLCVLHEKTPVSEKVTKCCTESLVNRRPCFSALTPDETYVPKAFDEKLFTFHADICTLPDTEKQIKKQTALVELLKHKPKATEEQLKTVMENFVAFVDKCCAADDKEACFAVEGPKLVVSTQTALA

In the case of `CC1(C)C(/C=C/C2=C(c3ccc(/C=N/Nc4ccc(C(=O)NCc5ccc(-c6nncnn6)cc5)cn4)cc3)C(=C/C=C3\N(CCCCS(=O)(=O)[O-])c4ccccc4C3(C)C)/CCC2)=[N+](CCCCS(=O)(=O)O)c2ccccc21` [Compound 5], the albumin binding [1] was “dye binding to a hydrophobic binding site of albumin”, the “increase in signal intensity in the tumor” value [2] was 2.3 × and the “reactivity of the tetrazine towards TCO-derivatives after plasma incubation” value ([3]; 24 h) was “remained reactive towards trans-cyclooctene (TCO)-derivatives”. The “stability in plasma (degradation)” value ([3]; out to 24 h) was “no signs of degradation”, the “photoacoustic signal in the knee (or shoulder) joints” value [4] was “did not show any significant signal” and the solubility [5] was 5000 µg/mL (≈ 4.54 mM).

With `CC1(C)C(/C=C/C2=C(c3ccc(/C=N/Nc4ccc(C(=O)NCc5ccc(C6=NNC=C7CCC(OC(=O)NCCCC(O)(P(=O)(O)O)P(=O)(O)O)CCCC76)cc5)cn4)cc3)C(=C/C=C3\N(CCCCS(=O)(=O)[O-])c4ccccc4C3(C)C)/CCC2)=[N+](CCCCS(=O)(=O)O)c2ccccc21` (centres unmarked) [Compound 7] the “uptake in the leg, images ex vivo” value ([4]; ex vivo leg after 1 hour post-injection imaging) was “intense uptake” and the “photoacoustic signal in the knee (or shoulder) joints” value [4] was “significant signal”.

With `CC1(C)C(/C=C/C2=C(c3ccc(/C=N/Nc4ccc(C(=O)NCc5ccc(C6=NNC=C7CCC(OC(=O)NCCCC8(O)P(=O)(O)[O][Tc]9([OH])([OH])([O]P(=O)(O)C(O)(CCCNC(=O)OC%10CC/C=C/CCC%10)P(=O)(O)[O]9)[O]P8(=O)O)CCCC76)cc5)cn4)cc3)C(=C/C=C3\N(CCCCS(=O)(=O)[O-])c4ccccc4C3(C)C)/CCC2)=[N+](CCCCS(=O)(=O)[O][Na])c2ccccc21` (centres unmarked) [Compound 9] the “blood level relative to [99mTc]Tc-TCO-BP alone” value ([6]; 1 h) was 20 ×, the “activity in the blood” value ([6]; 1 h post injection) was “over 15 % ID g^−1” and the “blood level relative to [99mTc]Tc-TCO-BP alone” value ([6]; 6 h) was 187 ×. The blood half-life ([6]; determined using radioactive counting) was 3.2 h, the Pellet (plasma proteins; 0 h) was 32.79 and the Pellet (plasma proteins; 0.5 h) was 36.10. The Pellet (plasma proteins; 1 h) was 47.53, the Pellet (plasma proteins; 2 h) was 45.29 and the Pellet (plasma proteins; 3 h) was 47.72. It also gave a Pellet (plasma proteins; 4 h) of 46.88, a Pellet (plasma proteins; 6 h) of 47.83 and a Supernatant (plasma proteins; 0 h) of 52.00. The Supernatant (plasma proteins; 0.5 h) was 53.44, the Supernatant (plasma proteins; 1 h) was 47.27 and the Supernatant (plasma proteins; 2 h) was 49.35. For the same compound, the Supernatant (plasma proteins; 3 h) was 46.82, the Supernatant (plasma proteins; 4 h) was 47.42 and the Supernatant (plasma proteins; 6 h) was 47.46. The “activity in the supernatant” value (plasma proteins; after 1 hour) was 50% and the “activity present in the pellet containing the proteins” value (plasma proteins; after 1 hour) was 50%.

For `CC1(C)C(/C=C/C=C/C=C/C=C2\N(CCCCS(=O)(=O)O)c3ccc4ccccc4c3C2(C)C)=[N+](CCCCS(=O)(=O)[O-])c2ccc3ccccc3c21` [ICG, indocyanine green], the “concentration that can be achieved” value [7] is given as 1000 µg/mL.
